How the values were obtained:
[1] = system: DC-activity induced by ARP preparations; assay: Effect of divalent cations on DC-activity of ARP; format: cell-based, mouse; conditions: mM-μM concentration range
Text: Some differences exist in the interaction of copper and zinc with ARP and must be explored further. […] The former was inhibited by both-calcium and magnesium ions, while the latter—only by magnesium ions.

Plasmodium yoelii = assay: Malaria in mice; format: in vivo, C57BL/6 mice; conditions: 40 mg/kg i.p. Days 1-5
Protocol: Groups of male C57BL/6 mice were inoculated i.v. on Day 0 with an infectious dose of Plasmodium yoelii. Groups of mice were administered, by i.p. injection, one of three concentrations of the test material (0.1, 1.0 or 10.0 ng/mouse/day) or vehicle on Day 1 and again on Days 2 through 5, for a total of five doses. An additional assay control group of mice was administered approximately 40 mg of Chloroquine per kg of body weight by i.p. injection on Days 1 through 5 as well.

Candida albicans = Candida albicans infection in mice; format: in vivo, CDI mice
Protocol: Groups of female CDI mice were inoculated intravenously (i.v.) on Day 0 with an infectious dose of Candida albicans calculated to provide 60-100% mortality in the control group. Groups of mice were administered, by i.p. injection, one of three concentrations of the test material (0.1, 1.0 or 10.0 ng/mouse/day) or vehicle on Day 0, approximately 1.5 hours following infectious challenge, and again on Days 1 through 4, for a total of five doses. An additional assay control group of mice was administered approximately 80 mg of fluconazole per kg of body weight by oral gavage approximately 1, 24, 48 and 72 hours following infectious challenge.

S-180 tumor = assay: Murine S-180 tumor model; format: in vivo, BALB/c mice; conditions: GM-CSF alone, 20 ng/mouse/day
Protocol: In a preferred embodiment, The S-180 cell line (ATCC CCL 8, batch F4805) is chosen as the tumor model because the same line is capable of growing both in animals and in culture (in both serum-containing and serum-free conditions). Tumors are established in mice (BALB/c) by injection of cell suspensions obtained from tissue culture. Approximately […] to 3×10^6 cells are injected intra-peritoneally per mouse. The tumor developed as multiple solid nodules at multiple sites within the peritoneal cavity and cause death in most of the animals within 10 to 15 days. In addition to monitoring animal survival, their condition is qualitatively assessed as tumor growth progressed and used to generate a tumor index as described in the following paragraph.
To establish an estimate of drug activity in tumor model experiments, an index can be developed that combines observational examination of the animals as well as their survival status. […]
The S-180 cell line (ATCC CCL 8, batch F4805) was chosen as the tumor model because the same line was capable of growing both in animals and in culture (in both serum-containing and serum-free conditions). […] In addition to monitoring animal survival, their condition was qualitatively assessed as tumor growth progressed and used to generate a tumor index. […]

[2] = system: freshly isolated dendritic cells (CD11c+ splenocytes); assay: Dendritic cell (DC) assay: IL12 release from freshly isolated dendritic cells; format: cell-based, BALB/c mice; conditions: tested for synergism and inhibition
Text: In a preferred embodiment, dendritic cell (DC) assay is used to follow interleukin-12 (IL-12) release from freshly isolated dendritic cells as an index of DC activation (see section 12.3). […] Briefly, by way of example but not limitation, a DC assay can be carried out as follows: freshly isolated dendritic cells (CD11c^+ splenocytes, e.g., isolated from the spleens of BALB/c mice within ten hours of assaying the activity) are suspended at a density of 0.5×10^6 cells per mL in cytokine supplemented culture media (GM-CSF, 1.0 ng/ml; IL-4, 1.0 ng/ml; IFNg, 3.0 ng/ml; anti mouse CD40, 0.5 mg/ml). […] Mouse IL-12 release from the dendritic cells (CD11c^+ splenocytes) is then measured using ELISA.
To follow the activity in semi-purified preparations of BEX, an assay which follows IL12 release from freshly isolated dendritic cells (DCs) as an index of DC activation was developed. This activity is highly correlated with both NK-CMC in vitro and anti-tumor activity in vivo.
DCs were isolated from the spleens of male BALB/c mice 8-12 weeks of age (Harlan Bioproducts for Science, Indianapolis, Ind.), using the magnetic assisted cell separation (MACS) system purchased from Miltenyi Biotech. In summary: Spleens were aseptically removed from mice and placed into a petri dish containing 5 mL holding media (DMEM/F12 supplemented with 10% FCS and antibiotics). Each spleen was then injected with ˜0.5 mls collagenase D solution (1 mg/mL in 10 mM Hepes-NaOH, pH 7.4, 150 mM NaCl, 5 mM MgCl2, 1.8 mM CaCl2), placed into 5-10 mL collagenase D, cut into 5-6 pieces and incubated at 37° C. for 45-60 min. Collagenase-digested spleens were then processed with glass slides and passed through a 70 μm nylon mesh cell strainer. After the strainer was flushed with 40 mL culture media, cells were centrifuged (8 min @ 200×G), suspended in 1 mL PBS and subjected to red blood cell lysis by incubating the cell suspension for 5 min at room temperature in 10 mL lysis buffer (155 mM NH4Cl, 10 mM KHCO3, 0.1 mM EDTA), followed by dilution in PBS to 50 mL and centrifugation (8 min @ 200×g). The splenocytes were then suspended in 10 mL MACS buffer (PBS pH 7.2, supplemented with 2 mM EDTA and 0.5% BSA), passed through a 40 μm nylon mesh cell strainer which was flushed with 40 mL MACS buffer. A preliminary cell count was taken at this time, prior to centrifugation (8 min @ 200×G). The splenocytes were suspended at a density of 10^8 cells per 400 μL MACS buffer. Paramagnetic MicroBeads coated with anti-CD11c^+ antibody were mixed with the splenocyte suspension (100 μL per 10^8 cells), incubated at +4° C. for 15 min, washed, suspended in 1.0 mL MACS buffer and passed through a MS+ separation column placed within a strong magnetic field. CD11c^+ cells were retained in the column whereas CD11c^− cells were washed off the column as the flow-through cell fraction. CD11c^+ cells were then collected by removing the column out of the magnetic field and flushing the column twice with 1 mL of MACS buffer. CD11c^+ cells were washed once with culture media and suspended at a density of 0.5×10^6 cells per mL in cytokine supplemented culture media {DMEM/F12 supplemented with 10% FCS and gentamicin containing mouse GM-CSF (1 ng/mL), mouse IL-4 (1 ng/mL), mouse IFNγ (3 ng/mL) and anti mouse CD40 (0.5 mg/mL)}.
Mouse IL12 release from CD11c^+ splenocytes was measured using ELISA. Briefly, CD11c+ cell culture supernatants were sampled following an overnight incubation (usually 15-18 hrs). Media samples ([…]) were added to ELISA plates coated with anti mouse IL12 (p70) capture antibody (R&D #MAB419; 250 ng in 100 μL per well) and incubated either at 37° C. or room temperature for 2 hrs. The ELISA plates were washed extensively with wash buffer after which 100 μL per well of detection antibody/detection reagent (biotinylated anti-mouse IL12; R&D #BAF419 at 50 ng/mL and streptavidin-HRP) was added. […]

Mouse sarcoma 180 cells = assay: NK cell-mediated cytotoxicity (NK-CMC) assay, LGL/S180 co-culture; format: cell-based; conditions: wide range of concentrations, presence and absence of IL-2 (125 U/ml)
Protocol: In one embodiment, a NK cell assay is used to assess ARP-induced cytotoxic activity of NK-like cells (see section 12.2). Briefly, by way of example but not limitation, a NK cell assay can be carried out as follows: large granular lymphocytes (LGLs) are co-cultured with tumor cells at various ratios (effector to target ratio) for four days at 37° C., 5% CO2. […] The culture is terminated at the end of day 4 and vitally stained using a MTT cell viability quantification assay (see Mossman, T. J. Immunol. Methods 65: 55 (1983); and Sigma Chemical MTT (M5655) product application note). Culture media is aspirated and the remaining cells are washed and replaced with DMEM/F12 plus FCS, containing MTT. The cells are further incubated for 4-5 hours at 37° C. Absorbance is measured with the aid of a plate reader. Decreased absorbance indicated a decrease in the number of viable cells per well (i.e., cytotoxicity). Absorbance is measured again after the MTT is solubilized by replacement of the medium with 2-propanol containing HCl, which gives a uniform color throughout the well. NK-inducing activity is calculated relative to negative (PBS/BSA) and positive (internal standard) controls.
Spleens (10-15 per experiment) were aseptically removed from male Balb/C mice 6-10 weeks of age. Splenocytes were “squeezed” out of spleens using 2 sterile glass microscope slides. Cells were collected in approximately 10 ml of DMEM/F 12 containing 10% fetal calf serum (FCS) and gentamicin (50 μg/ml). Single cell suspensions were generated by passing collected cells through a 70 μm nylon mesh screen. After washing the cell pellet once with PBS (centrifuged at 675×g for 5 min), red blood cells were lysed by brief hypotonic shock (i.e. exposure to sterile distilled, deionized water, followed immediately with appropriate volumes of 10×PBS to return to isotonicity). Remaining cells were centrifuged and resuspended in DMEM/F12+10% FCS and transferred to 75 cm^2 flasks each containing 25 mls DMEM/F12+10% FCS (cells from 5 spleens per flask). The cells were incubated for 60 min. at 37° C. to selectively remove readily adherent cells (mainly fibroblasts and macrophages). After the incubation, the flasks were gently shaken and the non-adherent cells were removed, pelleted by centrifugation, and resuspended in DMEM/F12 (no supplements) (1.0 mL/10^8 cells). A 1.0 mL volume of these cell suspensions were carefully layered onto a 70%/60%/40% (2 mL/4 mL/4 mL) Percoll™ gradients in 15 ml centrifuge tubes and centrifuged for 30 min at 675×G. The cells which sediment at the 40/60 interface represent primarily large granular lymphocytes (LGLs), enriched with NK cells. These cells were carefully removed with a pasteur pipet, centrifuged, washed once with PBS and resuspended in approximately 5 mL DMEM/F12 supplemented with gentamicin (50 μg/mL) and 10% fetal calf serum. Cell counts and appropriate dilutions of LGL cells were made with these cells, as described below. For convenience this LGL cell preparation is interchangeably referred to as NK cells.
Mouse sarcoma 180 cells were seeded into 96 well plates at a density of 5×10^3 cells per well in 100 μl DMEM/F12, supplemented with 10% FCS and gentamicin (50 μg/mL). […] NK cells were added in 100 μL of supplemented DMEM/F12 at designated densities: 0 NK cells/well; 5×10^4 NK cells/well (1:10 target/effector ratio); 1.25×10^5 NK cells/well (1:25 target/effector ratio); 2.5×10^5 NK cells/well (1:50 target/effector ratio); and, 5×10^5 NK cells/well (1:100 target/effector ratio). (Note: routinely, only the 1:50 and 1:100 ratios were used for screening purposes. IL2 was added as a media supplement with final concentration of 125 U/mL.). Co-cultures were incubated for 4 days at 37° C., 5% CO2, and terminated and vitally stained using a MTT cell viability quantification assay (see Mossman, T. J. Immunol. Methods 65:55 (1983); and Sigma Chemical MTT (M5655) product application note). […]

Molecule: [Ca+2].[Cl-].[Cl-] [CaCl2]
- inhibition of DC-activity of crude ARP preparations [1]: did not

Molecule: CCN(CC)CCCC(C)Nc1ccnc2cc(Cl)ccc12 (centres unmarked) [Chloroquine]
- Parasitized Erytthrocytes % (Plasmodium yoelii): 12%
- Survival (Days) ± SD (Plasmodium yoelii): 37.0 ± 0.7 days

Molecule: [Cl][Cu][Cl] [CuCl2]
- inhibition of DC-activity of crude ARP preparations [1]: showed inhibition of activity

Molecule: OC(Cn1cncn1)(Cn1cncn1)c1ccc(F)cc1F [Fluconazole, fluconazole]
- Percent Mortality (Candida albicans; ~80 mg/kg oral gavage): 0%
- Mean Survival Time (Candida albicans; ~80 mg/kg oral gavage 1, 24, 48 and 72 hours after challenge, all animals): 14.0 days

Molecule: [Cl-].[Cl-].[Mg+2] [MgCl2]
- inhibition of DC-activity of crude ARP preparations [1]: did not

Molecule: [Cl-].[Cl-].[Zn+2] [ZnCl2]
- inhibition of DC-activity of crude ARP preparations [1]: showed inhibition of activity

Molecule: GM-CSF: granulocyte macrophage-colony stimulating factor
- survivorship versus sham injections (S-180 tumor): followed similar survivorship curves

B1: IL-10: interleukin (protein, UniProt P18893 19-178, looked up)
Interleukin-10: SRGQYSREDNNCTHFPVGQSHMLLELRTAFSQVKTFFQTKDQLDNILLTDSLMQDFKGYLGCQALSEMIQFYLVEVMPQAEKHGPEIKEHLNSLGEKLKTLRMRLRRCHRFLPCENKSKAVEQVKSDFNKLQDQGVYKAMNEFDIFINCIEAYMMIKMKS
- DC mIL12 Release [2]: inhibitory
- NK-CMC Activity (Mouse sarcoma 180 cells): −

— US8257714B2, “Compositions and methods for immunotherapy of cancer and infectious diseases” (priority 2003, dated 2012)
